Measured values as given in paper PMC7447632, “Highly functionalized β-lactams and 2-ketopiperazines as TRPM8 antagonists with antiallodynic activity” (Scientific Reports, 2020).
Counter-ions that a name gives are not always drawn. Like-named read-outs stand apart in the source and are kept apart here.

What was measured:
Format in all cases: cell-based
[1] = molecular target: T1, rat TRPM8 channel (Rattus norvegicus, UniProt Q8R455); assay: Ca2+ microfluorometry, menthol-induced Ca2+ influx in HEK293 cells expressing rat TRPM8; details: 100 µM menthol, HEK-rTRPM8; for % Blockade 5 µM: 5 µM compound; for % Blockade 50 µM: 50 µM compound; for IC50: Ca2+ microfluorometry
T1 construct: expressed in transfected cells; host or cells: HEK293 (stably transfected)
T1 sequence (Q8R455 whole entry): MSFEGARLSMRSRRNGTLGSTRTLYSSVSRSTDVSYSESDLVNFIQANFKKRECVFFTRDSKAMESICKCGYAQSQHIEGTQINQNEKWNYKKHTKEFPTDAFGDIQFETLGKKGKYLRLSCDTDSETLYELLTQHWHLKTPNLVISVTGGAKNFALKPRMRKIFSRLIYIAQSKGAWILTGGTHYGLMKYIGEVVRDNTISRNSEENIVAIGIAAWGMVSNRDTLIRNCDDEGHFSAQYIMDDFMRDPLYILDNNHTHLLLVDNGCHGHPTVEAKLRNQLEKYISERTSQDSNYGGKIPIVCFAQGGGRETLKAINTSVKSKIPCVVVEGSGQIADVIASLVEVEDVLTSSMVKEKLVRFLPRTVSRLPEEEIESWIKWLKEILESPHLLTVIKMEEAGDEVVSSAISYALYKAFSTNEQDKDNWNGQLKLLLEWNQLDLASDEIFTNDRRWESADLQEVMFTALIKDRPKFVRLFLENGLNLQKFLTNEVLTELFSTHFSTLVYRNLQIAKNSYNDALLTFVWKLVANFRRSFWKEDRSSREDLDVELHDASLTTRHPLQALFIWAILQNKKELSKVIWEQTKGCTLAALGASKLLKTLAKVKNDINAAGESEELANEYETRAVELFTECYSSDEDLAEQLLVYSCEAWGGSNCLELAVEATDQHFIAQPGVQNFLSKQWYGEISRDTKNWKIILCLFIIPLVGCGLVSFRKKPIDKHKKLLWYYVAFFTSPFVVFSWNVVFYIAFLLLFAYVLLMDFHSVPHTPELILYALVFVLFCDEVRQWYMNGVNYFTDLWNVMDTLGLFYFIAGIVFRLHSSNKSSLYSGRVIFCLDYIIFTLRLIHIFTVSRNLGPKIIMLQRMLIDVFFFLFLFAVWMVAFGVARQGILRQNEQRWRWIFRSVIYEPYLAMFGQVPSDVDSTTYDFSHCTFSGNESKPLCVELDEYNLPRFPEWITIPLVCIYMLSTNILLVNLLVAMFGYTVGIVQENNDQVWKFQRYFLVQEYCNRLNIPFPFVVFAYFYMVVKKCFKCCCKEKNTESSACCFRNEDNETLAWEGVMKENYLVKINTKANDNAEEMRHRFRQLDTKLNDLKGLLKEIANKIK
Procedure: The ability to inhibit menthol-induced Ca^2+ intracellular influx into the cytosol on HEK293 cells heterologously expressing the rat TRPM8 channel was measured and compared to that of AMTB, a well-known TRPM8 antagonist. Representative recordings of fluorescence obtained in microfluorometry experiments for selected compounds are in Supplementary Fig. S3.
(§1) Human embryonic kidney cell line (HEK) stably transfected with rTRPM8 or h-TRPV1 were used as previously described. Briefly, cells were seeded in 96-well plates at a cell density of 30,000 cells 2 days before treatment. Buffer used was HBBS (in mM): 138 NaCl, 5.33 KCl, 1.26 CaCl2, 0.5 MgCl-6H2O, 0.4 MgSO4-7H2O, 4 NaHCO3 0.44 KH2PO4, 0.3 Na2HPO4, pH 7.4. The day of treatment the medium was replaced with 100 µL of the dye loading solution Fluo-4 NW supplemented with probenecid 2.5 mM. After incubation, plates were transferred to a fluorescence plate reader (Polastar BMG). In the experimental protocol, the baseline fluorescence was recorded ([…]) for 3 cycles. After, vehicle, compound at different concentrations and the corresponding antagonist, 10 µM AMTB for TRPM8 or 10 µM Ruthenium Red for TRPV1 were added to the well. Fluorescence intensity was recorded during 7 cycles more. Finally, the agonist 100 µM menthol for TRPM8 or 1 µM capsaicin for TRPV1 was added and fluorescence intensity was recorded during 10 cycles more.
The degree of inhibition of TRPM8 channel gating was calculated by comparison to calcium increase signal elicited by test substances and menthol at 100 µM. Decrease of menthol signal was expressed as percentage of inhibition (%). All data are expressed as mean ± standard deviation (SD). Each condition was assessed by triplicate (n = 3) in 3 independent experiments (N = 3). Z-factor was calculated in each assay using the following equation: […]. In all the experiments Z-factor was ≥ 0.5. To calculate IC50, normalized responses (%) versus log [µM] were adjusted to a non-linear fit with variable slope, a four-parameter dose–response curve following curve Y = 100/(1 + 10^((Log IC50-X)*HillSlope)) where […].

[2] = molecular target: T2, hTRPV1 channels (Homo sapiens, UniProt Q8NER1); assay: Ca2+ microfluorometry in HEK cells expressing hTRPV1 (capsaicin); details: 1 µM capsaicin; for TRPV1 Blockade (%) 5 µM: 5 µM compound; for TRPV1 Blockade (%) 50 µM: 50 µM compound
T2 construct: expressed in transfected cells; host or cells: HEK (stably transfected)
T2 sequence (Q8NER1 whole entry): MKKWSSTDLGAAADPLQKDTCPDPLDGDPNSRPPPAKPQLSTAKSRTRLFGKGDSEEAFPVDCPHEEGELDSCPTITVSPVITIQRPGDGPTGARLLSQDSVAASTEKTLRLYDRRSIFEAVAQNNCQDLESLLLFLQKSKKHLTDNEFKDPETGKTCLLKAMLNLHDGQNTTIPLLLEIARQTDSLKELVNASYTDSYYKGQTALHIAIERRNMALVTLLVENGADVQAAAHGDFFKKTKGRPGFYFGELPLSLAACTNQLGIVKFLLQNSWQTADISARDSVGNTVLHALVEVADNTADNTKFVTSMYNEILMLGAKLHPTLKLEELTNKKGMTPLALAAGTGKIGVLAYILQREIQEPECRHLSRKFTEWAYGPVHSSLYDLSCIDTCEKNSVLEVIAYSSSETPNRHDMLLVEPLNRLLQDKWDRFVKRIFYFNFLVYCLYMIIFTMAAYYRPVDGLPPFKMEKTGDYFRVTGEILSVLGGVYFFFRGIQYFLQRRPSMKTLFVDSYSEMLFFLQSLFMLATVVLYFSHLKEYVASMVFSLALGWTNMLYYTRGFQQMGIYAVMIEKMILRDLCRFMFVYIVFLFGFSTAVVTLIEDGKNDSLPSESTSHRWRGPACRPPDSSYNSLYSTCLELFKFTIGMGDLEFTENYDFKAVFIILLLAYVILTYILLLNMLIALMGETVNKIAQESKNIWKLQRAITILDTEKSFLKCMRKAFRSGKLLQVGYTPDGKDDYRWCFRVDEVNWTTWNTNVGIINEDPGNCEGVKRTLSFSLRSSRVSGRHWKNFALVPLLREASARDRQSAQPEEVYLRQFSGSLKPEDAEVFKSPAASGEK
Procedure: β-Lactam and 2-ketopiperazine derivatives were also assayed for their activity in cell expressing hTRPV1 channels. No significant antagonist activity was measured for any derivatives within both chemotypes (Supplementary Tables S1, S2, and Fig. S3), indicating their selectivity for TRPM8 channels.
as §1
Table S1. Activity at hTRPV1 of β–lactams derived from phenylalaninol conjugates
Compd. Isomer Isomer TRPV1 Blockade (%)
Table S2. Activity at hTRPV1 of 2-ketopiperazines derived from phenylalaninol

[3] = tested on: A549 (lung carcinoma, NSCLC); assay: SRB cytotoxicity assay, A549; details: for TGI A549: total growth inhibition; for GI50 / CC50: Homo sapiens; for CC50: read-out: LC50 A549
Procedure: (§2) Human tumor cell lines used in this study were purchased from the ATCC. A-549 (CCL-185), lung carcinoma; HT-29 (HTB-38), colorectal adenocarcinoma; MDA-MB-231 (HTB-26), breast adenocarcinoma; PSN1, pancreas adenocarcinoma.
(§3) All cell lines were maintained in DMEM (Dulbecco’s Modified Eagle's Medium) culture medium supplemented with 10% FBS (Fetal Bovine Serum), 100 Units/mL penicillin/streptomycin at 37 °C, 5% CO2 and 95% humidity.
(§4) Triplicate cultures were incubated for 72 h in the presence or absence of test compounds in dose–response curves (10 concentrations, typically ranging from 10 to 0.0026 µg/mL). A colorimetric assay using sulforhodamine B (SRB) was adapted for quantitative measurement of cell growth and cytotoxicity. A more detailed information on this assay is provides in the supplementary information. GI50 is the compound concentration that produces 50% inhibition on cell growth as compared to control cells.
(§5) In vitro bioassays for the detection of antitumor activity
(§6) The aim of this assay is to evaluate the in vitro cytostatic (ability to delay or arrest tumor cell growth) or cytotoxic (ability to kill tumor cells) activity of the samples […]
(§7) Name Nº ATCC Species Tissue Characteristics
(§8) A549 CCL-185 human lung lung carcinoma (NSCLC)
(§9) HT29 HTB-38 human colon colorectal adenocarcinoma
(§10) MDA-MB-231 HTB-26 human breast breast adenocarcinoma
(§11) PSN1 CRM-CRL-3211 human pancreas pancreas adenocarcinoma […]
(§12) A colorimetric assay, using Sulforhodamine B (SRB) reaction has been adapted to provide a quantitative measurement of cell growth and viability (following the technique described by Skehan et al. J. Natl. Cancer Inst. 1990, 82, 1107-1112 […]
(§13) This form of assay employs 96-well cell culture microplates following the standards of the American National Standards Institute and the Society for Laboratory […]
(§14) used in this study were obtained from the American Type Culture Collection (ATCC) and derive from different types of human cancer.
(§15) A549, HT29, MDA-MB-231 and PSN1 cells were maintained in Dulbecco’s
(§16) Modified Eagle Medium (DMEM) supplemented with 10% Fetal Bovine Serum (FBS), 2mM L-glutamine, 100 U/mL penicillin, and 100 U/mL streptomycin at 37 °C, 5% CO2 and 98% humidity. For the experiments, cells were harvested from subconfluent cultures using trypsinization and resuspended in fresh medium before counting and […]
(§17) A549, HT29, MDA-MB-231 and PSN1 cells were seeded in 96 well microtiter plates, at 5000 cells per well in aliquots of 150 µL, and allowed to attach to the plate surface for 18 hours (overnight) in drug free medium. After that, one control (untreated) plate of each cell line was fixed (as described below) and used for time zero reference value. Culture plates were then treated with test compounds (50 µL aliquots of 4X stock […]
(§18) solutions in complete culture medium plus 4% DMSO) using ten 2/5 serial dilutions (concentrations ranging from 10 to 0.003 µg/mL) and triplicate cultures (1% final concentration in DMSO). After 72 hours treatment, the antitumor effect was measured by using the SRB methodology: Briefly, cells were washed twice with PBS, fixed for 15 min in 1% glutaraldehyde solution at room temperature, rinsed twice in PBS, and stained in 0.4% SRB solution for 30 min at room temperature. Cells were then rinsed several times with 1% acetic acid solution and air-dried at room temperature. SRB was then extracted in 10 mM trizma base solution and the absorbance measured in an automated spectrophotometric plate reader at 490 nm.
(§19) Effects on cell growth and survival were estimated by applying the NCI algorithm (Boyd MR and Paull KD. Drug Dev. Res. 1995, 34, 91-109, DOI:10.1002/ddr.430340203). The values obtained in triplicate cultures were fitted by nonlinear regression to a four-parameters logistic curve by nonlinear regression analysis. . Using the absorbance measurements [time zero, (Tz), control growth, (C), and test growth in the presence of drug at the ten concentration levels (Ti)], the […]

[4] = tested on: HT29 (colorectal adenocarcinoma); assay: SRB cytotoxicity assay, HT29; details: for TGI HT29: total growth inhibition; for GI50 / CC50: Homo sapiens; for CC50: read-out: LC50 HT29
Procedure: as §2, §3, §4, §5, §6, §7, §8, §9, §10, §11, §12, §13, §14, §15, §16, §17, §18, §19

[5] = tested on: MDA-MB-231 (breast adenocarcinoma); assay: SRB cytotoxicity assay, MDA-MB-231; details: for TGI MDA-MB-231: total growth inhibition; for GI50 / CC50: Homo sapiens; for CC50: read-out: LC50 MDA-MB-231
Procedure: as §2, §3, §4, §5, §6, §7, §8, §9, §10, §11, §12, §13, §14, §15, §16, §17, §18, §19

[6] = tested on: PSN1 (pancreas adenocarcinoma); assay: SRB cytotoxicity assay, PSN1; details: for TGI PSN1: total growth inhibition; for GI50 / CC50: Homo sapiens; for CC50: read-out: LC50 PSN1
Procedure: as §2, §3, §4, §5, §6, §7, §8, §9, §10, §11, §12, §13, §14, §15, §16, §17, §18, §19

Row | Structure (SMILES) | % Blockade 5 µM [1] [%] | % Blockade 50 µM [1] [%] | IC50 [1] [nM] | TRPV1 Blockade (%) 5 µM [2] [%] | TRPV1 Blockade (%) 50 µM [2] [%] | further results
1 | O=C(N[C@@H](Cc1ccccc1)CN1C(=O)CC1(Cc1ccccc1)C(=O)OCc1ccccc1)OCc1ccccc1 (stereo partly shown) [Compound 12ab] | 92.3 ± 6.2 | 100.0 ± 3.1 | 1500 ± 1200 | 9.2±1.4 | 15.3±2.8 | –
2 | O=C(OCc1ccccc1)C(Cc1ccccc1)N1C[C@H](Cc2ccccc2)N(C(=O)OCc2ccccc2)CC1=O (stereo partly shown) [Compound 13ab] | 48.9 ± 6.2 | 102.1 ± 7.7 | – | 7.2±3.8 | 8.1±3.4 | TGI A549 ([3]; 72 h, SRB, unit inferred): > 17800 nM; GI50 ([3]; A549, 72 h, SRB): > 17800 nM; CC50 ([3]; A549, 72 h, SRB, unit inferred): > 17800 nM; TGI HT29 ([4]; 72 h, SRB, unit inferred): > 17800 nM; GI50 ([4]; HT-29, 72 h, SRB): > 17800 nM; CC50 ([4]; HT-29, 72 h, SRB, unit inferred): > 17800 nM; TGI MDA-MB-231 ([5]; 72 h, SRB, unit inferred): > 17800 nM; GI50 ([5]; MDA-MB-231, 72 h, SRB): > 17800 nM; CC50 ([5]; MDA-MB-231, 72 h, SRB, unit inferred): > 17800 nM; TGI PSN1 ([6]; 72 h, SRB, unit inferred): > 17800 nM; GI50 ([6]; PSN1, 72 h, SRB): > 17800 nM; CC50 ([6]; PSN1, 72 h, SRB, unit inferred): > 17800 nM
3 | O=C(N[C@H](Cc1ccccc1)CN1C(=O)CC1(Cc1ccccc1)C(=O)OCc1ccccc1)OCc1ccccc1 (stereo partly shown) [Compound 14ab] | 91.0 ± 4.3 | 103 ± 2.7 | 1200 ± 1000 | 4.1±2.4 | 8.7±3.5 | –
4 | COC(=O)C(Cc1ccccc1)N1C[C@H](Cc2ccccc2)N(C(=O)OCc2ccccc2)CC1=O (stereo partly shown) [Compound 20ab] | 22.3 ± 5.5 | 61.0 ± 5.6 | 18800 ± 1700 | 12.2±3.1 | 19.3±1.2 | –
5 | O=C(OCc1ccccc1)C(Cc1ccccc1)N1C[C@H](Cc2ccccc2)N(C(=O)OCc2ccccc2)CC1=O (stereo partly shown) [Compound 21ab] | 70.0 ± 6.8 | 92.5 ± 4.3 | 2000 ± 1500 | 6.2±3.1 | 11.8±1.8 | –
6 | CC1C(=O)N(C[C@H](Cc2ccccc2)NC(=O)OCc2ccccc2)[C@@]1(Cc1ccccc1)C(=O)OCc1ccccc1 (stereo partly shown) [Compound 25ab] | 68.2 ± 5.6 | 89.2 ± 9.2 | 3900 ± 1900 | 3.4±1.7 | 4.3±1.1 | –
7 | C[C@H]1C(=O)N(C(Cc2ccccc2)C(=O)OCc2ccccc2)C[C@H](Cc2ccccc2)N1C(=O)OCc1ccccc1 (stereo partly shown) [Compound 26ab] | 93.5 ± 3.4 | 102.4 ± 1.5 | 2400 | 6.2±1.8 | 7.3±3.2 | –
8 | CC1C(=O)N(C[C@@H](Cc2ccccc2)NC(=O)OCc2ccccc2)[C@@]1(Cc1ccccc1)C(=O)OCc1ccccc1 (stereo partly shown) [Compound 31ab] | 91.0 ± 4.3 | 105.0 ± 5.5 | 1600 ± 1300 | 5.7±2.3 | 12.1±1.3 | –
9 | C[C@H]1C(=O)N(C(Cc2ccccc2)C(=O)OCc2ccccc2)C[C@@H](Cc2ccccc2)N1C(=O)OCc1ccccc1 (stereo partly shown) [Compound 32ab] | 47.4 ± 6.8 | 115.1 ± 4.5 | 17400 ± 1600 | 4.1±2.3 | 6.3±2.3 | –
10 | CC(C(=O)OCc1ccccc1)N1CC(Cc2ccccc2)N(C(=O)OCc2ccccc2)CC1=O (stereo not shown) [Compound 38ab] | 66.0 ± 3.3 | 105.5 ± 3.2 | 2500 ± 1300 | – | – | –
11 | C[C@@H]1C(=O)N(C[C@@H](Cc2ccccc2)NC(=O)OCc2ccccc2)[C@]1(C)C(=O)OCc1ccccc1 [Compound 39a] | 46.6 ± 11.1 | 100.4 ± 3.5 | 6200 ± 1100 | 2.6±0.9 | 3.2±2.777 | –
12 | CC(C(=O)OCc1ccccc1)N1C[C@@H](Cc2ccccc2)N(C(=O)OCc2ccccc2)[C@H](C)C1=O (stereo partly shown) [Compound 40ab] | 79.1 ± 3.3 | 107.9 ± 2.5 | 800 ± 1200 | – | – | –
13 | COc1cccc2c1C(=O)c1c(O)c3c(c(O)c1C2=O)C[C@@](O)(C(=O)CO)C[C@@H]3O[C@H]1C[C@H](N)[C@H](O)[C@H](C)O1 [Doxorubicin.HCl, reference compound] | – | – | – | – | – | TGI A549 ([3]; 72 h, SRB, unit inferred): 640 nM; CC50 ([3]; A549, 72 h): 2930 nM; GI50 ([3]; A549, 72 h, SRB): 240 nM; TGI HT29 ([4]; 72 h, SRB, unit inferred): 640 nM; CC50 ([4]; HT-29, 72 h): > 17200 nM; GI50 ([4]; HT-29, 72 h, SRB): 190 nM; TGI MDA-MB-231 ([5]; 72 h, SRB, unit inferred): 410 nM; CC50 ([5]; MDA-MB-231, 72 h): 980 nM; GI50 ([5]; MDA-MB-231, 72 h, SRB): 170 nM; TGI PSN1 ([6]; 72 h, SRB, unit inferred): 480 nM; CC50 ([6]; PSN1, 72 h): 1620 nM; GI50 ([6]; PSN1, 72 h, SRB): 170 nM
